Assay: in vitro
Settings: human, hela cells, % viability

| Compound | viability at 28.5 h, 10 µM [%] |
| --- | --- |
| CN1CCC(N[C@H]2C[C@@H](Cc3cc(CCO)on3)C2(C)C)CC1 [CBK289253] | 93.6 |
| CCn1cc(S(=O)(=O)NC2(c3ccccc3)CCCC2)cn1 [CBK282767] | 90.6 |
| COc1ccc(C(C)=O)cc1Cc1c(O)nc(SC)nc1O [CBK262699] | 93.9 |
| O=C1COc2ccc(S(=O)(=O)NCc3ccccc3)cc2N1 [CBK270156] | 93.7 |
| Cc1nn(C)c(C)c1CN1CCOC(c2nc(C(C)(C)C)cs2)C1 (centres unmarked) [CBK304170] | 85.6 |
| C[C@]12CN(CCc3ccccc3)C[C@H]1NC(=O)c1ccccc1C2=O [CBK284704] | 90.3 |
| CCC(=O)Nc1ccc(C(=O)Nc2ccc(S(=O)(=O)N3CCCCC3)cc2)cc1 [CBK269549] | 84 |
| CN1CCC(NC(=O)c2cccc(OCC(=O)N3CCCCC3)c2)C1=O (centres unmarked) [CBK307281] | 78.3 |
| O=C(NCCN1CCOCC1)c1ccc(NS(=O)(=O)c2ccccc2)cc1 [CBK270118] | 102 |
| Cc1ccc(NC(=O)CN2C(=O)S/C(=C\c3cc(C)n(-c4ccc(C(=O)O)cc4)c3C)C2=O)cc1 [CBK264465] | 91.6 |
| O=C(c1nn2c(C(F)(F)F)cc(-c3ccccc3)nc2c1Cl)N1CCOCC1 [CBK051498] | 90.4 |
| COc1ccc(CNC(=S)Nc2cccc(C(F)(F)F)c2)cc1OC [CBK266977] | 101 |
| CC(=O)NC[C@H]1CN(c2ccc(C#N)c(C)c2)C(=O)O1 [CBK010393] | 107 |
| Brc1ccc(CN2CCN3CCCC3C2C2CCCCC2)o1 (centres unmarked) [CBK021456] | 82.6 |
| N#CCCSCc1ccc(C(=O)O)o1 [CBK265858] | 115 |
| CCCC(=O)NCC1Cc2cc(F)cc(-c3ccc(C(C)=O)s3)c2O1 (centres unmarked) [CBK306945] | 90.3 |
| CCOc1cc(C=Cc2cc(C(=O)O)c3ccccc3n2)ccc1OC(F)F [CBK296952] | 86.3 |
| Cn1c(=O)c2c(ncn2CC(=O)Nc2cccc3ccccc23)n(C)c1=O [CBK133515] | 95.8 |
| CN1CCN(c2c(C(=O)O)cc([N+](=O)[O-])cc2[N+](=O)[O-])CC1 [CBK261519] | 100 |
| CCCC(=O)CCOC(=O)C1=C(C)OC2C1Nc1cc(F)c(F)cc1N2CC (centres unmarked) [CBK022099] | 93.4 |
| CC(=O)N1CCn2nc(C(=O)N(CCO)Cc3ccccc3)cc2C1 [CBK306769] | 89.3 |
| Oc1cccc(-c2nccnc2NCc2cccc(C(F)(F)F)c2)c1 [CBK037014] | 86.9 |
| C=C(C)Cn1c(SC(C)C)nnc1-c1ccccc1OC [CBK200072] | 97.1 |

| Compound | viability at 28.5 h, 10 µM [%] |
| --- | --- |
| O=C(O)Cc1sc(-c2ccc(Cl)cc2)nc1O [CBK067730] | 93.1 |
| CC(C)C(C(=O)O)N(C)C(=O)OCc1ccccc1 (centres unmarked) [CBK286593] | 84.8 |
| COc1cc(CNCc2ccco2)ccc1OCC(N)=O [CBK270204C] | 105 |
| Cc1cccc(NC(c2ccc(C)s2)c2ccc3ccc(C)nc3c2O)n1 (centres unmarked) [CBK266408] | 94.2 |
| COc1ccc(NC(=O)N(CCO)C2CCCCC2)c(OC)c1 [CBK008768] | 90.9 |
| CCOc1ccccc1C(=O)N1CCC(Cc2ccc(-c3ccccc3)cc2)(C(N)=O)CC1 [CBK285775] | 97 |
| COC(=O)[C@H]1CN(C(=O)c2cccs2)C[C@@H]1c1ccc(F)cc1 [CBK283732] | 92 |
| N#C/C(=C\C=C\c1ccc([N+](=O)[O-])cc1)c1nc(-c2cc3cc([N+](=O)[O-])ccc3oc2=O)cs1 [CBK262357] | 93.7 |
| O=S(=O)(Nc1cnc2ccccc2c1)c1cccs1 [CBK043694] | 83 |
| O=C(Nc1cccc(CCc2nc3ccccc3[nH]2)c1)c1ccc(Cn2cncn2)cc1 [CBK285648] | 89.1 |
| COCCNC(=O)c1cc(-c2cccc(C(=O)N(C)C)c2)cnc1N1CCOCC1 [CBK076464] | 97.7 |
| Cc1ncccc1C(=O)NC(CC(C)C)c1nnc2n1CCNCC2 (centres unmarked) [CBK307348] | 80.5 |
| Cc1ccc(-n2sc(=O)n(CCc3ccccc3)c2=O)cc1 [CBK113496] | 110 |
| Cc1ccc(S(=O)(=O)NCC(=O)Nc2cnc(-c3cccc(C)c3)c(-c3ccc(N)cc3)n2)cc1 [CBK037600] | 83.5 |
| COc1ccc(C[C@@]23CC[C@@H](NC(=S)NCc4ccccc4)C[C@@H]2N(C)CC3)cc1 [CBK004262] | 88.4 |
| COc1cc(Nc2cc(-c3ccc(F)c(F)c3)ncn2)cc(OC)c1OC [CBK090711] | 94.7 |
| O=C(CN1CCCC1)N1CCCC1c1nc2ccccc2[nH]1 (centres unmarked) [CBK284003] | 89.4 |
| CCOCCN(CCOCC)c1nnc2ccc(Cl)nn12 [CBK010024] | 99.6 |
| CCc1nn(Cc2ccccn2)c(=O)c2cc3sc(C)cc3n12 [CBK284113] | 77 |
| O=C(Cc1ccc2c(c1)CCC2)N1CCCCC1CN1CCOCC1 (centres unmarked) [CBK282704] | 88.8 |
| Cc1ccn(CC(=O)N2CC[C@H]3NC(=O)COc4ccccc4CCCC[C@@H]3C2)c(=O)c1 [CBK292045] | 99.2 |
| O=c1oc2ccccc2n1C1CCN(Cc2nc3ccccc3n2Cc2ccccc2)CC1 [CBK286176] | 102 |
| Cc1cc(C)nc(N(C#N)CC(=O)c2ccc(Br)cc2)n1 [CBK266562] | 91.3 |

| Compound | viability at 28.5 h, 10 µM [%] |
| --- | --- |
| COc1ccc(C)cc1S(=O)(=O)N(C)CC(=O)Nc1cccc(Cl)c1 [CBK269493] | 88.5 |
| COc1cccc(-n2ncc(-c3cccnc3)n2)c1 [CBK112813] | 89.9 |
| COCCCNC(=O)C1CCCN(c2nc3c(-c4ccc(C)cc4)csc3c(=O)[nH]2)C1 (centres unmarked) [CBK215548] | 83.1 |
| Cc1nc(CN2C(=O)CC3(C2=O)C(=O)N(CCCCOc2ccccc2)c2ccccc23)cs1 (centres unmarked) [CBK076103] | 102 |
| CC(=O)Nc1ccc(Oc2cc(C)nc(C3CCCNC3)c2)cc1 (centres unmarked) [CBK283443] | 88.1 |
| O=C(O)CCC(=O)Nc1nc(-c2ccc(Cl)cc2)cs1 [CBK299829] | 86.8 |
| O=c1c(N2CCNCC2)nccn1CCOc1cccc(Cl)c1Cl [CBK013463] | 92.2 |
| Cn1c(=O)c2c(ncn2CC(=O)Nc2ccccc2C#N)n(C)c1=O [CBK133465] | 89.6 |
| O=C(c1ccc(CCN2CCCC2)nc1)N1CCN(CCc2ccccc2)CC1 [CBK200227] | 91.6 |
| O=c1[nH]c(=O)c2cc(S(=O)(=O)Nc3ccccc3Cc3ccccc3)ccc2[nH]1 [CBK286377] | 94.3 |
| c1ccc(COc2ccc(N3CCNCC3)cc2)cc1 [CBK012776C] | 83.5 |
| S=c1nc[nH]cc1-c1ccc(Br)cc1 [CBK005833] | 87.6 |
| Cc1ccc(CN(Cc2cnc(C)n2C)CC2CCCO2)o1 (centres unmarked) [CBK283291] | 100 |
| Cc1csc(NC(=O)c2cccn(Cc3cccc([N+](=O)[O-])c3)c2=O)n1 [CBK294414] | 87.4 |
| CC1=CC(=O)OC1(O)c1ccc(Br)cc1 (centres unmarked) [CBK022687] | 91.6 |
| CCOc1ncccc1C(=O)Nc1cnc2c(cnn2C(C)C)c1 [CBK306210] | 102 |
| COc1ccc(C(=O)O)cc1CN1CCOCC1 [CBK287029] | 102 |
| COc1ccc(S(=O)(=O)N2CCN(C(=O)COc3ccc(C)cc3)CC2)cc1 [CBK263354] | 90.2 |
| CN1CCC(N2CCN(C(=O)NC3CCc4ccccc43)CC2)CC1 (centres unmarked) [CBK156110] | 106 |
| Cc1cccc2sc(NC(=O)CCCCCNC(N)=O)nc12 [CBK296689] | 106 |
| O=C(CN1CCC(c2ccc(F)cc2)CC1)NCc1ccco1 [CBK283641] | 94.9 |
| COc1cc(NC(=O)c2cc([N+](=O)[O-])ccc2N2CCN(C)CC2)c2ncccc2c1 [CBK263034] | 90 |
| Cc1ccc(OC(C)C(=O)N(C)c2ccccc2)cc1 (centres unmarked) [CBK268645] | 111 |

| Compound | viability at 28.5 h, 10 µM [%] |
| --- | --- |
| CN1C(=O)CN(C2CCCCC2)C1=O [CBK116320] | 82.3 |
| Cc1ccc(S(=O)(=O)N2/C(=C\COc3ccc(Cl)cc3Cl)C(N3CCOCC3)c3ccccc32)cc1 (centres unmarked) [CBK262740] | 87.6 |
| Cc1nccn1CCN(C)C(=O)c1ccc2c(c1)ncn2C [CBK281993] | 98.8 |
| Cc1cc(/C=N\NC(=O)c2cc3ccccc3cc2O)c(C)n1-c1ccccc1 [CBK261801] | 84.6 |
| Nc1ccc(C(=O)Nc2ccc(Nc3cc(-c4ccco4)ncn3)cc2)cc1 [CBK091099] | 96.5 |
| Cc1c(S(=O)(=O)Nc2ccc(C(O)(C(F)(F)F)C(F)(F)F)cc2)cnn1-c1ccccc1 [CBK062099] | 92.1 |
| O=C(COC(=O)C1CCN(S(=O)(=O)c2cccc3cccnc23)CC1)c1cccc([N+](=O)[O-])c1 [CBK264435] | 97 |
| COc1ccc(-c2ccc(=O)n3c2[C@@H]2C[C@@H](CN(C(=O)NC4CCCCC4)C2)C3)cc1 [CBK289189] | 82.1 |
| COc1ccc(C2(NCc3ccc4c(c3)n(C)c(=O)n4C)CC2)cc1 [CBK282836] | 103 |
| N#Cc1ccc(-n2cc(-c3ccc(F)cc3F)nn2)cc1 [CBK112990] | 98.3 |
| Cc1ccccc1Nc1nc(N)nc(CN2CCCC2C(=O)N(C)C)n1 (centres unmarked) [CBK305638] | 81 |
| CCOC(=O)Cn1ncc2c3sc(C)cc3n(CC)c2c1=O [CBK284185] | 87.1 |
| COc1ccc2c(c1)C1(CC(=O)N(C)C1=O)C(=O)N2CC(=O)O (centres unmarked) [CBK076118] | 100 |
| CCC(CN(C)C)C(=O)c1ccccc1 (centres unmarked) [CBK015409C] | 95.1 |
| O=C1/C(=C/c2c(NCCc3ccccc3)nc3ccccn3c2=O)SC(=S)N1Cc1ccco1 [CBK264674] | 96.4 |
| Cc1ccn(CCC(=O)NC(C)c2cccnc2)n1 (centres unmarked) [CBK282197] | 97.6 |
| Cn1cc(I)c(C(=O)NNC(=S)Nc2ccc(S(N)(=O)=O)cc2)n1 [CBK267066] | 106 |
| CCn1ccnc1CN1CCCC(CCc2ccccc2F)C1 (centres unmarked) [CBK307173] | 99.3 |
| CC(=O)c1cn(CCC(=O)NC2CCCOC2)c2ccccc12 (centres unmarked) [CBK282515] | 114 |
| O=C(NC1Cc2ccccc2C1)c1ccno1 [CBK200358] | 99.4 |
